Data: patent publication US20260097036A1 (Kadmon Corporation, LLC, priority 2022, published 2026)
Where two headings read alike, the source gives them in different places.

Assays:
[1] = solubility and natural pH of the API; type: physicochemical
[2] = excipient compatibility testing of dry binary mixes; type: physicochemical; conditions: binary mixes 1:1; 2-8° C. and 40° C./75% RH, over a 14-day period
Method: The dry binary mixes were analyzed for appearance and related substances after storage at 2-8° C. (control storage condition) and 40° C./75% RH for 14 days and 28 days. The binary mixes were also tested for visual appearance at initial mixing.

[3] = stability study with pH modifiers, XRPD of isolated solids (samples 2.1-2.6); type: physicochemical; conditions: T = 28 days 40° C./75% RH
Method: Samples were prepared containing sodium benzoate as a preservative and with the pH adjusted with either citric acid or tartaric acid which were compared with samples having no pH modifier.
The above samples were prepared for XRPD analysis in three steps: solids were isolated by centrifugation at 3000 rpm for 20 minutes; the supernatant was decanted; and the samples were dried under vacuum at ambient temperature for 18-24 hours overnight. XRPD data of the solid samples was obtained.

[4] = Part 2 relative bioavailability and food effect, plasma PK; type: in vivo, human; conditions: for Tlag / AUC % extrap / Lambda-z / half-life / Tmax / AUC(0-inf) / AUC(0-t) / Cmax / Vd/F: plasma; for half-life / Tmax / AUC(0-inf) / AUC(0-t) / Cmax / Vd/F: male, human, 200 mg; for Cmax: read-out: Cmax; for Vd/F: read-out: Vz/F
Method: Subjects underwent preliminary screening procedures to determine their eligibility for Part 2 of the study at the screening visit (Day −28 to Day −2 of Part 2). Subjects who took part in Part 1 of the study were permitted to take part in Part 2.
Three different regimens (G, H, and I), were used over the three periods. In Regimen G, belumosudil was administered in Tablet form (reference); and in Regimens H and I, belumosudil was administered in the form of Oral Liquid Formulation.
In Period 1, Day 1: subjects were randomized prior to administration of the first dose of IMP to 1 of 6 treatment sequences (GHI, HIG, IGH, IHG, GIH and HGI) with 3 subjects assigned to each treatment sequence. On Day 1 of each study period (periods 1, 2 and 3), subjects received the regimens in Table 36:
Regimen H was administered to subjects as a flavorless low sucralose liquid formulation in a fasted state, and Regimens G and I were administered to subjects in a fed state. Regimen G was administered with a total of 240 mL of water. For Regimens H and I, immediately after IMP administration, subjects consumed water to a total volume of 240 mL (including the dosing volume).
Subjects received a single dose of IMP in the morning of Day 1 following an overnight fast of a minimum of 10 h (Regimen H, fasted state) or following a standard breakfast (Regimens G and I, fed state). Blood samples were collected at regular intervals for PK analysis. Following administration of Regimen H, subjects completed a written taste/palatability questionnaire individually and privately.
Subjects were resident in the clinical unit for 10 consecutive nights that covered all 3 treatment periods. All subjects remained on site until 72 h post-final dose for safety and PK assessments. There was a minimum washout of 3 days between each IMP administration. To ensure the ongoing wellbeing of the subjects, a follow-up phone call took place 3 to 7 days post-final dose. If a subject reported any AEs after discharge which represented a cause for concern, they were required to attend the clinical unit for a follow-up assessment. This would have been an unscheduled visit.

[5] = tested on: pro-fibrotic signaling; conditions: in vitro; cited from earlier work
[6] = tested on: animal models of cGVHD; conditions: in vivo; cited from earlier work
[7] = cited from earlier work
[8] = po, Regimen G: 200 mg Tablet, Fed, single oral dose, geometric mean (CV%)
[9] = po, Regimen H: 200 mg Liquid Formulation, Fasted, single oral dose, geometric mean (CV%)
[10] = po, Regimen I: 200 mg Liquid Formulation, Fed, single oral dose, geometric mean (CV%)

In the case of `CC(C)NC(=O)COc1cccc(-c2nc(Nc3ccc4[nH]ncc4c3)c3ccccc3n2)c1` [Belumosudil, 2-{3-[4-(1H-indazol-5-ylamino)-2-quinazolinyl]phenoxy}-N-(propan-2-yl)acetamide, reference compound], the “natural pH of API in water” value ([1]; API in water) is reported as ~3 pH, the solubility ([1]; at pH 2.0-3.0) is reported as “soluble” and the “compatibility with hydrochloric acid and maleic acid” value [2] is reported as “not compatible”. For the same molecule, the “XRPD of isolated solids (form stability)” value [3] was “stable in the formulation”, the Tlag ([4]; Regimen G: 200 mg Tablet, Fed, single oral dose, healthy male volunteers, median (range)) was 0.500 h and the AUC % extrap ([4]; Regimen G: 200 mg Tablet, Fed, single oral dose, geometric mean (CV%)) was 2.601 (44.8%). The Lambda-z ([4]; Regimen G: 200 mg Tablet, Fed, single oral dose, geometric mean (CV%), individual values where n <= 2) was 0.074 (57.7%) l/h, the Tlag ([4]; Regimen H: 200 mg Liquid Formulation, Fasted, single oral dose, healthy male volunteers, median (range)) was 0.00 h and the AUC % extrap ([4]; Regimen H: 200 mg Liquid Formulation, Fasted, single oral dose, geometric mean (CV%)) was 2.785 (50.4%). For the same molecule, the Lambda-z ([4]; Regimen H: 200 mg Liquid Formulation, Fasted, single oral dose, geometric mean (CV%), individual values where n <= 2) was 0.073 (43.5%) l/h, the Tlag ([4]; Regimen I: 200 mg Liquid Formulation, Fed, single oral dose, healthy male volunteers, median (range)) was 0.00 h and the AUC % extrap ([4]; Regimen I: 200 mg Liquid Formulation, Fed, single oral dose, geometric mean (CV%)) was 1.918 (34.9%). The Lambda-z ([4]; Regimen I: 200 mg Liquid Formulation, Fed, single oral dose, geometric mean (CV%), individual values where n <= 2) was 0.102 (49.2%) l/h, the “peak (Cmax) and total exposure (AUC), liquid formulation vs tablet” value ([4]; both in the fed state, GMR comparison) was “largely similar to that of the tablet reference” and the “time from which concentrations were evident” value ([4]; liquid formulation, fasted and fed (Regimens H and I)) was 0.5 h. For the same molecule, the half-life ([4]; oral, Regimen G, tablet fed, read-out: elimination half-lives (range)) was 4.84 to 33 h, the half-life ([4]; oral, Regimen H, liquid formulation fasted, read-out: elimination half-lives (range)) was 5.36 to 23.8 h and the half-life ([4]; oral, Regimen I, liquid formulation fed, read-out: elimination half-lives (range)) was 2.38 to 15.7 h. For the same molecule, the half-life ([4]; oral, Regimens G, H, I, read-out: geometric mean half-life (range over regimens)) was 6.79 to 9.5 h, the Tmax ([4]; po, Regimen G: 200 mg Tablet, Fed, single oral dose, healthy male volunteers, median (range), read-out: Tmax) was 3 h and the AUC(0-inf) [4, 8] was 10200 ng·h/mL. For the same molecule, the half-life ([4]; po, Regimen G: 200 mg Tablet, Fed, single oral dose, geometric mean (CV%), individual values where n <= 2, read-out: T1/2 (converted)) was 9.39 h, the AUC(0-t) ([4]; po, Regimen G: 200 mg Tablet, Fed, single oral dose, geometric mean (CV%), read-out: AUC (0-24)) was 9310 ng·h/mL and the AUC(0-t) ([4]; po, Regimen G: 200 mg Tablet, Fed, single oral dose, geometric mean (CV%), read-out: AUC (0-last)) was 9720 ng·h/mL. For the same molecule, the Cmax [4, 8] was 1930 ng/mL, the Vd/F [4, 8] was 265 L and the Tmax ([4]; po, Regimen H: 200 mg Liquid Formulation, Fasted, single oral dose, healthy male volunteers, median (range), read-out: Tmax) was 1.5 h. It also gave an AUC(0-inf) [4, 9] of 8430 ng·h/mL, a half-life ([4]; po, Regimen H: 200 mg Liquid Formulation, Fasted, single oral dose, geometric mean (CV%), individual values where n <= 2, read-out: T1/2 (converted)) of 9.5 h and an AUC(0-t) ([4]; po, Regimen H: 200 mg Liquid Formulation, Fasted, single oral dose, geometric mean (CV%), read-out: AUC (0-24)) of 7620 ng·h/mL. The AUC(0-t) ([4]; po, Regimen H: 200 mg Liquid Formulation, Fasted, single oral dose, geometric mean (CV%), read-out: AUC (0-last)) was 8010 ng·h/mL, the Cmax [4, 9] was 1550 ng/mL and the Vd/F [4, 9] was 325 L. For the same molecule, the AUC(0-inf) [4, 10] was 9500 ng·h/mL, the half-life ([4]; po, Regimen I: 200 mg Liquid Formulation, Fed, single oral dose, geometric mean (CV%), individual values where n <= 2, read-out: T1/2 (converted)) was 6.79 h and the AUC(0-t) ([4]; po, Regimen I: 200 mg Liquid Formulation, Fed, single oral dose, geometric mean (CV%), read-out: AUC (0-24)) was 9340 ng·h/mL. For the same molecule, the AUC(0-t) ([4]; po, Regimen I: 200 mg Liquid Formulation, Fed, single oral dose, geometric mean (CV%), read-out: AUC (0-last)) was 9570 ng·h/mL, the Cmax [4, 10] was 1790 ng/mL and the Vd/F [4, 10] was 206 L. For the same molecule, the Tmax ([4]; po, single oral 200 mg as liquid formulation, fasted state, read-out: median Tmax) was 1.5 h, the Tmax ([4]; po, single oral 200 mg as tablet reference, fed, read-out: median Tmax) was 3 h and the aberrant pro-fibrotic signaling [5] was “inhibited aberrant pro-fibrotic signaling”. For the same molecule, the “activity in animal models of cGVHD” value [6] was “demonstrated activity” and the solubility in water [7] was “practically insoluble”.
